In ChEMBL document CHEMBL5727488, “3-indol substituted derivatives, pharmaceutical compositions and methods for use” (2020):
pIC50: −log10 of the molar value.

Target: Tryptophan 2,3-dioxygenase (Homo sapiens, UniProt P48775)
Test: Assay for TDO2 enzymatic activity determination: To measure the TDO2 activity, the procedure described in Dolusic et al. J. Med. Chem.; 2011, 54, […] was adapted: the reaction mixture contained (final concentrations) potassium phosphate buffer (50 mM, pH 7.5), ascorbic acid (0.25 M), methylene blue (0.125 μM), catalase (40 units/mL, from bovine liver, Sigma), and human recombinant TDO2 enzyme (prepared as described in Dolusic et al. J. Med. Chem.; 2011, 54, 5320-5334; 0.9 μg) without or with the compounds of the present invention at the indicated concentrations (total volume 112.5 μL). The reaction was initiated by the addition of 37.5 μL of L-Trp (final concentration 1 mM) at room temperature. The reaction was conducted at room temperature during one hour and stopped by the addition of 30 μL of 30% (w/v) trichloroacetic acid.To convert N-formylkynurenine into kynurenine, the reaction mixture was incubated at 65° C. for 30 min. Then 150 μL of the reaction mixture was mixed with 120 μL of 2.5% (w/v) 4-(dimethylamino)-benzaldehyde in acetic acid and incubated for 5 min at room temperature. Kynurenine concentrations were determined by measuring the absorbance at 480 nm. A standard curve was made with pure kynurenine. The TDO activity was measured as described above using ten serial concentrations of the compounds of the present invention. […]

Chain of Tryptophan 2,3-dioxygenase (P48775 whole entry): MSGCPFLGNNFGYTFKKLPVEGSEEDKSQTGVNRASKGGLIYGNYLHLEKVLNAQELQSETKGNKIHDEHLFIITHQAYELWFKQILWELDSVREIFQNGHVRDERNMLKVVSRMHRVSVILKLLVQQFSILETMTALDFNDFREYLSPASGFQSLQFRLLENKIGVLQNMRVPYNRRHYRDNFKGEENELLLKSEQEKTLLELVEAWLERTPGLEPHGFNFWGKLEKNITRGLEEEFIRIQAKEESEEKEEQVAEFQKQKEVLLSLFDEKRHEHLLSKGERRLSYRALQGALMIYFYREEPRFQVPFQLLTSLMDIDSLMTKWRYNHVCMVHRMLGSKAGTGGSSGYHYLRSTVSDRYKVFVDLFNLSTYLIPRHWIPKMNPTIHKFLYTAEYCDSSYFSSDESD

pIC50: 6.08
SMILES: C[C@@H](CO)NS(=O)(=O)c1ccc(-c2c[nH]c3cc(F)ccc23)cc1
